Reference: US20070021357A1, “Treatment of inflammatory conditions” (Dynamis Therapeutics, Inc., priority 2005, published 2007)
Several values for one entry are separate records, joined by “and”; a condition that tells them apart may be missing. Identical values can stand only once.

Tests used:
3DG [1] = assay: Plasma 3DG levels in diabetic and non-diabetic rats; assay type: in vivo; conditions: 50 mg/kg body weight injections in saline, within one week
Description: A cohort of twelve diabetic rats was divided into two groups of six. The first group received saline-only injections, and the second received injections of 3-O-methyl sorbitollysine (50 mg/kg body weight) in saline solution. The same procedure was conducted on a cohort of twelve non-diabetic rats.

[2] = Locus of 3-O-methyl sorbitollysine uptake in vivo (tissues, urine, plasma); design: species or system rats
Description: […] Urine was collected for 3 hours, after which the rats were sacrificed. The tissues to be analyzed were removed and freeze clamped in liquid nitrogen. Perchloric acid extracts of the tissues were used for metabolite analysis. The tissues examined were taken from the brain, heart, muscle, sciatic nerve, spleen, pancreas, liver, and kidney. Plasma was also analyzed.

STZ-diabetic rats = assay: Skin elasticity measurement (vacuum pull) in STZ-diabetic and normal rats; assay type: in vivo; conditions: 50 mg/kg daily, eight weeks, p=0.39
Description: Experiments were performed to determine the effects of DYN 12 on the loss of skin elasticity associated with diabetes. To this end, two groups of STZ-diabetic rats and two groups of normal rats were subjected to treatment with DYN 12 or saline. One group of STZ-diabetic rats (n=9) received daily subcutaneous injections of DYN 12 at 50 mg/kg for eight weeks, as did one group of normal rats (n=6). A group of control diabetic rats (n=10) and a group of normal rats (n=6) received saline instead of DYN 12. One rat was removed from the diabetic DYN 12 group after 2 weeks because its blood glucose readings were inconsistent (too low) with other diabetic rats.
A non-invasive procedure based on CyberDERM, Inc. technology utilizing a skin elasticity measurement device was used to test the effects of DYN 12 treatment on skin elasticity. The procedure provides for non-invasive measurement of skin elasticity based upon the amount of vacuum pull required to displace skin. A suction cup probe is adhered to an area of shaved skin in order to form an airtight seal. Then, a vacuum is applied to the area of the skin inside the suction cup until the skin is displaced past a sensor located inside the probe. Accordingly, the more pressure that is required to displace the skin, the less elastic the skin is.

diabetic rats = assay: Skin elasticity/muscle strength measurement on alert, restrained rats; assay type: in vivo; conditions: preliminary data
Description: FIG. 15 is graphic illustration of the effects of DYN 12 (3-O-methylsorbitollysine) treatment on skin elasticity. Diabetic or normal rats were treated with DYN 12 (50 mg/kg daily) or saline for eight weeks and then subjected to skin elasticity tests. The four groups used included diabetic controls (saline injection; solid black bar), diabetics treated with DYN 12 (open bar), normal animal controls (saline injections; stippled bar), and normal animals treated with DYN 12 (cross-hatched bar). Data are expressed in kilopascals (kPA) and are shown as averages of the results obtained with each particular group of test subjects. Measurements were taken on the hind leg of the test subjects and were taken on an alert animal restrained by a technician.
Skin elasticity measurements were also taken on the test subjects as described above, but without sedating the test animals before measurement. FIG. 15 illustrates skin elasticity measurements taken on the hind leg of the test subjects while the subjects were alert and being restrained by a technician.
In these experiments, the animals were fiercely fighting restraint and the results are different.

3DG [3] = conditions: Kappler et al., 2002; cited from earlier work

## COC(C(O)CNCCCCC(N)C(=O)O)C(O)C(O)CO (centres unmarked) [DYN 12, 3-O-methylsorbitollysine]
3DG [1]; Diabetic rats
  plasma 3DG levels: 0.44 ± 0.10 µM
3DG [1]; Non-diabetic rats
  plasma 3DG levels: 0.13 ± 0.02 µM
[2]; brain, heart, muscle, sciatic nerve, spleen, pancreas, liver, kidney examined 3 hours after i.p. injection
  only tissue extract found to contain the compound: kidney
[2]; individual rats, urine plus kidneys, 13500 nmols injected, listed as 3OMeSL, in nmol
  total 3OMeSL recovered: 12355 and 5235 and 13011 and 8257 and 7151 and 7193
[2]; individual rats, urine plus kidneys, of injected dose, listed as 3OMeSL
  % 3OMeSL recovered: 91.5% and 38.8% and 96.4% and 61.2% and 53.0% and 53.3%
STZ-diabetic rats
  elasticity value in treated diabetic rats compared with non-diabetic rats treated with saline: not statistically different
Diabetic rats
  muscle strength measured while alert, vs diabetic rats not so treated: stronger muscle strength
3DG [3]
  3DG levels in the plasma of diabetic and non-diabetic animals: reduces 3DG levels
